Activity calls are given as the source filed them. No cut-off for these calls is given here.
Assays:
[1] = Inhibition of TXB2 production in Sprague-Dawley rat whole blood; format: functional, tissue-based
[2] = biological target: T1, Cytosolic phospholipase A2 (Homo sapiens, UniProt P47712); assay: Inhibition of cytosolic phospholipase A2-alpha in GLU micelle assay
T1 sequence (P47712 whole entry): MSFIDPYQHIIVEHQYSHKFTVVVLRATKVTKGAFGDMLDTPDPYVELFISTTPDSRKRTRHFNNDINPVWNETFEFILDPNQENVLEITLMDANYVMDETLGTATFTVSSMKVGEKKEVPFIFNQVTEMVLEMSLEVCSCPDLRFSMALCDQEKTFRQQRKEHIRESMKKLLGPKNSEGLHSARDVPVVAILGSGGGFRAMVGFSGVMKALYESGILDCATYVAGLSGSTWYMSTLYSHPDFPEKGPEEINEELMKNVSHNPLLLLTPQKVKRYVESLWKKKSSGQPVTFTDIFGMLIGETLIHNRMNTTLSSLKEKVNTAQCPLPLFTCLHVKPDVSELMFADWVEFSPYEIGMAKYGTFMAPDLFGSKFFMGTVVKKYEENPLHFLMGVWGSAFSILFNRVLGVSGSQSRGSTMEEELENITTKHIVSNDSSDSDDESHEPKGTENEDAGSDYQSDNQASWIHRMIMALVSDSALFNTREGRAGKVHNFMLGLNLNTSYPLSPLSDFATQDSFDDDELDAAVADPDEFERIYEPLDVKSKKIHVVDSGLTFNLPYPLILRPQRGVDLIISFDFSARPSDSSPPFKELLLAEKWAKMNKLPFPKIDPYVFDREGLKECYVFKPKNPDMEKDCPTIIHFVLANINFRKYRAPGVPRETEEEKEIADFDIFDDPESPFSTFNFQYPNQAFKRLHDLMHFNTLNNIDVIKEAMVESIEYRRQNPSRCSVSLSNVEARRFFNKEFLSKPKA

[3] = Inhibition of LTB4 production in MC9 cells at 0.5 uM; format: functional; details: Mus musculus
[4] = Inhibition of PGF2-alpha production in MC9 cells at 0.5 uM; format: functional; details: Mus musculus
[5] = Inhibition of PGF2-alpha production in the presence of exogenous arachidonic acid in MC9 cells at 0.5 uM; format: functional; details: Mus musculus
[6] = Plasma concentration in rat; format: ADME, organism-based
[7] = Oral bioavailability in rat; format: ADME, organism-based; details: in vivo
[8] = Inhibition of TXB2 production in human whole blood; format: functional, tissue-based
[9] = Inhibition of LTB4 production in human whole blood; format: functional, tissue-based
[10] = (§1) Inhibition of TXB2 production in Sprague-Dawley rat whole blood at 10 uM; format: functional, tissue-based
[11] = Inhibition of LTB4 production expressed in MC9 cells in presence of 1 megacells/mL; format: functional, cell-based; details: Mus musculus
[12] = Inhibition of LTB4 production expressed in MC9 cells in presence of 4 megacells/mL; format: functional, cell-based; details: Mus musculus
[13] = Inhibition of LTB4 production expressed in MC9 cells in presence of 8 megacells/mL; format: functional, cell-based; details: Mus musculus
[14] = species: Rattus norvegicus; assay: as §1; format: functional, tissue-based
[15] = Inhibition of PGF2-alpha production in MC9 cells at 1.5 uM; format: functional; details: Mus musculus
[16] = Inhibition of PGF2-alpha production in the presence of exogenous arachidonic acid in MC9 cell at 1.5 uM; format: functional; details: Mus musculus
[17] = Inhibition of LTB4 production in MC9 cells at 1.5 uM; format: functional; details: Mus musculus

SMILES	IC50 [1]	IC50 [2]	other results
Cc1c(CCSc2ccc(C(=O)O)cc2)c2cc(Cl)ccc2n1C(c1ccccc1)c1ccccc1	10 µM	2 µM	–
Cc1c(CCOc2ccc(C(=O)O)cc2)c2cc([N+](=O)[O-])ccc2n1C(c1ccccc1)c1ccccc1	8 µM	5 µM	–
Cc1c(CC(=O)O)c2cc(Cl)ccc2n1C(c1ccccc1)c1ccccc1	< 100 µM	165 µM	–
O=C(O)c1cccc(CC(O)Cc2cn(C(c3ccccc3)c3ccccc3)c3cc(Cl)ccc23)c1 (centres undefined)	–	90 µM	–
Cc1c(CC[S+]([O-])CCc2ccc(C(=O)O)cc2)c2cc(Cl)ccc2n1C(c1ccccc1)c1ccccc1 (centres undefined)	25 µM	18 µM	–
Cc1c(CCCCOc2ccc(C(=O)O)cc2)c2cc(Cl)ccc2n1C(c1ccccc1)c1ccccc1	9 µM	2 µM	–
O=C(O)c1ccc(OCC(O)COc2ccc(SCCCCCc3ccccc3)cc2)cc1 (centres undefined)	> 100 µM	340 µM	–
Cc1c(CCNc2ccc(C(=O)O)cc2)c2cc(Cl)ccc2n1C(c1ccccc1)c1ccccc1	> 25 µM	23 µM	–
Cc1c(CCS(=O)(=O)c2ccc(CCC(=O)O)cc2)c2cc(Cl)ccc2n1C(c1ccccc1)c1ccccc1	0.8 µM	0.5 µM	inhibition at 0.5 µM [3]: 100%; inhibition at 0.5 µM [4]: 100%; inhibition at 0.5 µM [5]: 2%; clearance [6]: 47 mL/min/kg; bioavailability [7]: 11%; IC50 [8]: 1.4 µM; IC50 [9]: 0.9 µM
Cc1c(CCS(=O)(=O)c2ccc(C(=O)O)cc2)c2c(Cl)c(Cl)ccc2n1C(c1ccccc1)c1ccccc1	4 µM	1 µM	–
Cc1c(C(=O)C(=O)Nc2ccc(C(=O)O)cc2)c2cc(Cl)ccc2n1C(c1ccccc1)c1ccccc1	25 µM	26 µM	–
Cc1c(CCOC(=O)Nc2ccc(C(=O)O)cc2)c2cc(Cl)ccc2n1C(c1ccccc1)c1ccccc1	13 µM	38 µM	–
Cc1c(CCOc2ccc(C(=O)O)cc2)c2cc(-c3ccccc3)ccc2n1C(c1ccccc1)c1ccccc1	9 µM	33 µM	–
Cc1c(CCS(=O)(=O)CCc2ccc(C(=O)O)cc2)c2cc(Cl)ccc2n1C(c1ccccc1)c1ccccc1	14 µM	93 µM	–
Cc1c(CCOc2cc(C(=O)O)on2)c2cc(Cl)ccc2n1C(c1ccccc1)c1ccccc1	> 50 µM	40 µM	–
Cc1c(CCOc2ccc(C(=O)O)cc2)c2cc(N3CCOCC3)ccc2n1C(c1ccccc1)c1ccccc1	> 10 µM	22 µM	–
Cc1c(CCOc2ccc(C(=O)O)cn2)c2cc(Cl)ccc2n1C(c1ccccc1)c1ccccc1	–	85 µM	IC50 [10]: Not Active
COc1c(Cc2cn(C(c3ccccc3)c3ccccc3)c3cc(Cl)ccc23)cccc1C(=O)O	–	120 µM	–
COc1cc(C(=O)O)ccc1Cc1cn(C(c2ccccc2)c2ccccc2)c2cc(Cl)ccc12	> 400 µM	160 µM	IC50 [11]: 0.8 µM; IC50 [12]: 1.5 µM; IC50 [13]: 8.3 µM
Cc1c(CCOc2ccc(CC(=O)O)cc2)c2cc(Cl)ccc2n1C(c1ccccc1)c1ccccc1	48 µM	> 10 µM	–
Cc1c(CCS(=O)(=O)c2ccc(C(=O)O)cc2)c2c(Cl)cccc2n1C(c1ccccc1)c1ccccc1	12 µM	2 µM	–
Cc1c(CCOc2ccc(C(=O)O)cc2)c2cc(Br)ccc2n1C(c1ccccc1)c1ccccc1	3 µM	2 µM	–
Cc1c(CCOc2ccc(C(=O)O)cc2)c2cc(N)ccc2n1C(c1ccccc1)c1ccccc1	–	8 µM	inhibition [14]: inactive

SMILES	IC50 [1]	IC50 [2]	other results
Cc1c(CCC(=O)NCc2ccc(C(=O)O)cc2)c2cc(Cl)ccc2n1C(c1ccccc1)c1ccccc1	50 µM	30 µM	–
Cc1c(CCOc2cccc(C(=O)O)c2)c2cc(Cl)ccc2n1C(c1ccccc1)c1ccccc1	> 50 µM	120 µM	–
Cc1c(CCS(=O)(=O)c2ccc(C(=O)O)cc2)c2cc(Cl)ccc2n1C(c1ccccc1)c1ccccc1	2 µM	0.8 µM	inhibition at 0.5 µM [3]: 82%; inhibition at 0.5 µM [4]: 72%; inhibition at 0.5 µM [5]: 8%; clearance [6]: 44 mL/min/kg; bioavailability [7]: 39%; IC50 [8]: 8.4 µM; IC50 [9]: 6.3 µM
Cc1c(CCOc2ccc(C(=O)O)c(F)c2)c2cc(Cl)ccc2n1C(c1ccccc1)c1ccccc1	8 µM	2 µM	–
Cc1c(CCOc2ccc(CCC(=O)O)cc2)c2cc(Cl)ccc2n1C(c1ccccc1)c1ccccc1	2 µM	3 µM	–
Cc1c(CCS(=O)(=O)c2ccc(C(=O)O)cc2)c2ccccc2n1C(c1ccccc1)c1ccccc1	6 µM	2 µM	–
Cc1c(CCOc2ccc(C(=O)O)cc2Cl)c2cc(Cl)ccc2n1C(c1ccccc1)c1ccccc1	25 µM	11 µM	–
O=C(O)c1ccc(OCC(O)Cc2cn(C(c3ccccc3)c3ccccc3)c3cc(Cl)ccc23)cc1 (centres undefined)	100 µM	40 µM	–
Cc1c(CCOc2ccc(C(=O)O)cc2)c2ccc(Cl)cc2n1C(c1ccccc1)c1ccccc1	13 µM	6 µM	–
COC(=O)c1ccc(OCCc2c(C(C)(C)C)n(C(c3ccccc3)c3ccccc3)c3ccc(Cl)cc23)cc1	> 25 µM	20 µM	–
O=C(COc1ccc(SCCCCCc2ccccc2)cc1)COc1ccc(C(=O)O)cc1	12 µM	0.04 µM	IC50 [12]: 1.5 µM
Cc1c(CCCc2ccc(C(=O)O)cc2)c2cc(Cl)ccc2n1C(c1ccccc1)c1ccccc1	–	2 µM	–
Cc1c(CCS(=O)(=O)c2ccc(C(=O)O)cc2)c2ccc(Cl)cc2n1C(c1ccccc1)c1ccccc1	5 µM	4 µM	–
Cc1c(CCOc2ccc(CCCC(=O)O)cc2)c2cc(Cl)ccc2n1C(c1ccccc1)c1ccccc1	50 µM	20 µM	–
COc1ccc2c(c1)c(CCS(=O)(=O)c1ccc(C(=O)O)cc1)c(C)n2C(c1ccccc1)c1ccccc1	7 µM	3 µM	–
Cc1c(CCS(=O)(=O)c2ccc(C(=O)O)cc2)c2cc(Cl)c(Cl)cc2n1C(c1ccccc1)c1ccccc1	2 µM	3 µM	–
Cc1c(CC[S+]([O-])c2ccc(C(=O)O)cc2)c2cc(Cl)ccc2n1C(c1ccccc1)c1ccccc1 (centres undefined)	3 µM	1 µM	–
Cc1c(CCOc2ccc(C(=O)O)cc2)c2cc(Cl)ccc2n1C(c1ccccc1)c1ccccc1	7 µM	3 µM	inhibition at 1.5 µM [15]: 81%; clearance [6]: 3.2 mL/min/kg; bioavailability [7]: 2.6%; inhibition at 1.5 µM [16]: -8%; inhibition at 1.5 µM [17]: 96%; IC50 [8]: 34 µM; IC50 [9]: 30 µM
O=C(O)c1ccc(OCCc2c(-c3ccccc3)n(C(c3ccccc3)c3ccccc3)c3ccc(Cl)cc23)cc1	> 50 µM	> 50 µM	–
Cc1c(CCOc2ccc(C(=O)O)c(Cl)c2)c2cc(Cl)ccc2n1C(c1ccccc1)c1ccccc1	25 µM	7 µM	–
O=C(O)c1ccc(OCCc2cn(C(c3ccccc3)c3ccccc3)c3ccc(Cl)cc23)cc1	14 µM	5 µM	–
Cc1c(CCS(=O)(=O)c2ccc(C(=O)O)cc2)c2cc(F)ccc2n1C(c1ccccc1)c1ccccc1	5 µM	1 µM	–
Cc1c(CCS(=O)(=O)c2ccc(C(=O)O)cc2)c2cccc(Cl)c2n1C(c1ccccc1)c1ccccc1	10 µM	6 µM	–
